By IC50 is commonly meant the point on the concentration scale where inhibition reaches its midpoint. Higher therefore signals weaker potency.

The target of the experiment is T1, Human ATX protein (Homo sapiens, UniProt Q13822).
T1 construct: made in house
Put plainly: ATX biochemical FRET assay with FS-3 substrate. The following applies: FS-3 2 μM, ATX 1.0 μg/mL, room temperature 2 hours, fluorescence 485/538 nm. The method in brief: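 Purified human ATX (1.0 μg/mL final) preincubated with compound 30 min at room temperature in Tris pH 7.4 buffer with NaCl, KCl, CaCl2, MgCl2 and 1 mg/mL fatty acid-free BSA. FS-3 added to 2 μM final; 2 h at room temperature in the dark, fluorescence at ex 485/em 538 nm.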
`CCC(c1ccc2c(Cl)c(O[C@H]3CC[C@@H](CC)CC3)ccc2c1)N1C2CCCC1CC(C(=O)O)C2` (stereo partly drawn) [Example 237, 9-(1-(5-chloro-6-((cis-4-ethylcyclohexyl)oxy)naphthalen-2-yl)propyl)-9-azabicyclo[3.3.1]nonane-3-carboxylic acid]: the IC50 was ≤ 250 nM. For `COC(=O)C1CC2CCCC(C1)N2C(=O)c1ccc2c(C(F)(F)F)c(N[C@H]3CC[C@@H](C(F)(F)F)CC3)ccc2c1` (stereo partly drawn) [Example 244, methyl 9-(5-(trifluoromethyl)-6-((cis-4-(trifluoromethyl)cyclohexyl)amino)-2-naphthoyl)-9-azabicyclo[3.3.1]nonane-3-carboxylate], the 50% inhibitory concentration (IC50) is ≤ 100 nM. As for `O=C(O)C1CC2CCCC(C1)N2C(=O)c1ccc2c(C(F)(F)F)c(N[C@H]3CC[C@@H](C(F)(F)F)CC3)ccc2c1` (stereo partly drawn) [Example 245, 9-(5-(trifluoromethyl)-6-((cis-4-(trifluoromethyl)cyclohexyl)amino)-2-naphthoyl)-9-azabicyclo[3.3.1]nonane-3-carboxylic acid], the IC50 was ≤ 100 nM.

Take `CC(C)(C)[C@H]1CC[C@H](Nc2ncc3cc(C(=O)N4C5CCC4CC(C(=O)O)C5)ccc3n2)CC1` (stereo partly drawn) [Example 262, 8-(2-((trans-4-(tert-butyl)cyclohexyl)amino)quinazoline-6-carbonyl)-8-azabicyclo[3.2.1]octane-3-carboxylic acid]: the IC50 is ≤ 100 nM.

As for `C[C@H]1CC[C@H](Nc2cc3ccc(C(=O)N4C5CCCC4CC(C(=O)O)C5)cc3cn2)CC1` (stereo partly drawn) [Example 263, 9-(3-((trans-4-methylcyclohexyl)amino)isoquinoline-7-carbonyl)-9-azabicyclo[3.3.1]nonane-3-carboxylic acid], the IC50 is ≤ 500 nM.

Turning to `C[C@H]1CC[C@H](Nc2cc3ccc(C(=O)N4C5CCC4CC(C(=O)O)C5)cc3cn2)CC1` (stereo partly drawn) [Example 264, 8-(3-((trans-4-methylcyclohexyl)amino)isoquinoline-7-carbonyl)-8-azabicyclo[3.2.1]octane-3-carboxylic acid], the half-inhibitory concentration (IC50) was ≤ 500 nM. `C[C@H]1CC[C@@H](Nc2ncc3cc(CN4C5CCCC4CC(C(=O)O)C5)ccc3c2Cl)CC1` (stereo partly drawn) [Example 271, 9-((4-chloro-3-((cis-4-methylcyclohexyl)amino)isoquinolin-7-yl)methyl)-9-azabicyclo[3.3.1]nonane-3-carboxylic acid]: the IC50 is ≤ 500 nM.

In the case of `CC(C)(C)[C@H]1CC[C@@H](Nc2ncc3cc(C(=O)N4C5CCC4CC(C(=O)O)C5)ccc3c2Cl)CC1` (stereo partly drawn) [Example 272, 8-(3-((cis-4-(tert-butyl)cyclohexyl)amino)-4-chloroisoquinoline-7-carbonyl)-8-azabicyclo[3.2.1]octane-3-carboxylic acid], the IC50 is ≤ 250 nM.

With `O=C(O)C1CC2CCCC(C1)N2Cc1cc2ccc(O[C@H]3CC[C@@H](C(F)(F)F)CC3)c(Br)c2cn1` (stereo partly drawn) [Example 274, 9-((8-bromo-7-((cis-4-(trifluoromethyl)cyclohexyl)oxy)isoquinolin-3-yl)methyl)-9-azabicyclo[3.3.1]nonane-3-carboxylic acid], the IC50 was ≤ 250 nM. Regarding `C[C@H]1CC[C@@H](Oc2ccc3cc(CN4C5CCCC4CC(C(=O)O)C5)ncc3c2Br)CC1` (stereo partly drawn) [Example 279, 9-((8-bromo-7-((cis-4-methylcyclohexyl)oxy)isoquinolin-3-yl)methyl)-9-azabicyclo[3.3.1]nonane-3-carboxylic acid], the IC50 was ≤ 500 nM. Regarding `CC[C@H]1CC[C@@H](Oc2ccc3nc(NC4C5CCC4CC(C(=O)O)C5)ccc3c2C(F)(F)F)CC1` (stereo partly drawn) [Example 280, 8-((6-((cis-4-ethylcyclohexyl)oxy)-5-(trifluoromethyl)quinolin-2-yl)amino)bicyclo[3.2.1]octane-3-carboxylic acid], the IC50 is ≤ 100 nM. As for `CC[C@H]1CC[C@@H](Oc2ccc3nc(NC4C5CCCC4CC(C(=O)O)C5)ccc3c2Cl)CC1` (stereo partly drawn) [Example 281, 9-((5-chloro-6-((cis-4-ethylcyclohexyl)oxy)quinolin-2-yl)amino)bicyclo[3.3.1]nonane-3-carboxylic acid], the 50% inhibitory concentration (IC50) was ≤ 100 nM. Regarding `O=C(O)C1CC2CC(C(=O)O)CC(C1)N2Cc1ccc2c(C(F)(F)F)c(O[C@H]3CC[C@@H](C(F)(F)F)CC3)ccc2c1` (stereo partly drawn) [Example 282, (1R,3S,5S)-9-((5-(trifluoromethyl)-6-((cis-4-(trifluoromethyl)cyclohexyl)oxy)naphthalen-2-yl)methyl)-9-azabicyclo[3.3.1]nonane-3,7-dicarboxylic acid], the IC50 is ≤ 100 nM. For `O=C(O)C12CC3CC(C1)N(Cc1ccc4c(C(F)(F)F)c(O[C@H]5CC[C@@H](C(F)(F)F)CC5)ccc4c1)C(C3)C2` [Example 283, 9-(1R,3S,5S,7S)-2-((5-(trifluoromethyl)-6-((cis-4-(trifluoromethyl)cyclohexyl)oxy)naphthalen-2-yl)methyl)-2-azaadamantane-5-carboxylic acid] the value was ≤ 100 nM; for `NC1CC2CC(C(=O)O)CC(C1)N2Cc1ccc2c(C(F)(F)F)c(O[C@H]3CC[C@@H](C(F)(F)F)CC3)ccc2c1` (stereo partly drawn) [Example 284, 9-(1R,3R,5S)-7-amino-9-((5-(trifluoromethyl)-6-((cis-4-(trifluoromethyl)cyclohexyl)oxy)naphthalen-2-yl)methyl)-9-azabicyclo[3.3.1]nonane-3-carboxylic acid], ≤ 250 nM. In the case of `CCC1CCC(Oc2ccc3cc(C(CC)N4C5CCCC4CC(C(=O)O)C5)ccc3c2C(F)(F)F)CC1` [Example 297, 9-((R)-1-(6-(((1s,4S)-4-ethylcyclohexyl)oxy)-5-(trifluoromethyl)naphthalen-2-yl)propyl)-9-azabicyclo[3.3.1]nonane-3-carboxylic acid], the IC50 is ≤ 250 nM.

Values taken from patent publication US9944666B2, “Compounds that are S1P modulating agents and/or ATX modulating agents” (BIOGEN MA INC., priority 2012, dated 2018).
